Data reported in US8541167B2 (priority 2004, dated 2013).
Where two headings read alike, the source gives them in different places.

What was measured:
[1] = system: live vaccinia virus (Dryvax); parameters: species or system A/NCr mice; conditions: mouse, in vivo
orthopoxvirus = system: orthopoxvirus; parameters: species or system A/NCr mice; conditions: mouse, in vivo
[2] = in vivo; cited from earlier work

Row | Compound | Lesion score [1] | severity of vaccine lesions and healing [1] | Lesion score ([1]; 12.5 mg/kg) | post challenge anti-orthopoxvirus antibody titers, presence vs absence of CDV (orthopoxvirus) | pre-challenge anti-orthopoxvirus antibody titers, presence vs absence of CDV (orthopoxvirus) | oral bioavailability [2] | attenuation of lesion development and acceleration of lesion resolution, compared with CDV [1]
1 | Nc1ccn(C[C@@H](CO)OCP(=O)(O)O)c(=O)n1 [Cidofovir] | 0 | decreased the severity of vaccine lesions and facilitated healing | 0 | similar | lower | low | –
2 | hexadecyloxypropyl-CDV [HDP-CDV] | – | decreased the severity of vaccine lesions and facilitated healing | – | – | – | – | more efficacious than CDV
